Test results as given in paper PMC7574625 (ACS Catalysis, 2020).
Where a chain is given by its changes, count along the chain named.

What was measured:
LmrR A92Q = target: T1, LmrR A92Q (Lactococcus cremoris, UniProt A2RI36, A92Q); test: binding affinity
T1 sequence (A2RI36 1-116 A92Q): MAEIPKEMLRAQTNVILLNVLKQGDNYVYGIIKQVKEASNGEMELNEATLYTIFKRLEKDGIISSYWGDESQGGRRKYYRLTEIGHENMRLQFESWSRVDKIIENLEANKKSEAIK

LmrR_A92E = target: T2, LmrR_A92E (Lactococcus cremoris, UniProt A2RI36, A92E); test: binding affinity
T2 sequence (A2RI36 1-116 A92E): T1 sequence (A2RI36 1-116 A92Q) with Q92E

In the case of [Cu+2].c1cnc2c(c1)ccc1cccnc12 [Cu(II)-phen], the Kd (LmrR A92Q) is reported as 103 ± 41 nM and the Kd (LmrR_A92E) is reported as 65 ± 19 nM.
